Measurements: patent US20080009546A1 (Chevron U.S.A. Inc., priority 2005, published 2008)
Like-named read-outs stand apart in the source and are kept apart here.

Experiments:
C57/BL6 male mice [1] = assay: Rotarod test (balance and coordination, side effects); conditions: mouse, in vivo
Method: The side effects of the compounds was primarily evaluated using the rotarod test, which mainly assesses the balancing and coordination of mice. The comparisons were made on fall time of the mice between the first measure (pre-treatment) and second measure taken 20 min after the drug/vehicle injection in the same group (paired t-test). […] Comparisons of the rotatod fall times after drug/vehicle dosing were made between drug treatment and control groups (unpaired t-test).

[2] = tested on: primary neurons from rat cerebral cortex; assay: NMDA-induced LDH release assay in primary cortical neurons (neuroprotection); type: cell-based; set-up: Total LDH (Avg): unit not given here
Summary of the method: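 Fetal rat (E16–E18) cortical neurons on mouse astroglial feeder layers, fed growth medium/neurobasal+B27 (1:1), used after 11–14 days. Treatments given in Locke's buffer pH 7.4 for 15 min, then cells washed; 24 h later percent LDH released = 100×secreted/(total+secreted), tetrazolium readout.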

C57/BL6 male mice [3] = tested on: C57/BL6 male mice
C57/BL6 male mice [4] = assay: Pentylenetetrazol (PTZ)-induced seizure/death model; type: in vivo, mouse; conditions: for # of deaths within 30 min: 6 mice; for # of deaths within 30 min / PTZ-induced death: PTZ 100 mg/kg; for PTZ-induced death: 30 min observation
Method: Although the protection against death is the key endpoint, other effects of the compounds on PTZ-induced seizures were also assessed using multiple parameters. For the mice that did die within the 30 minute observation window, the time of death was also compared. […] The seizure occurrence rate, onset time and number of level 3 (L3) seizure (repetitive seizures but the animal can still stand) and level 4 (L4) seizure (repetitive seizures and the animal loses righting) are also analyzed. The MDT compound (30 mg/kg) treated groups show a certain degree of improvement compared to control. No data from MK801 or memantine were included because the seizures occurring under these treatments are totally different from the control or MDT injected groups due to side effects (“high jumping”).

[5] = NMDA 300 uM + Memantine 50 uM, Plate #4, poly-lysine-coated rat neurons, GM/NB + B-27 fed, 24 hour incubation
[6] = NMDA 300 uM + Memantine 50 uM, Plate #5, astrocyte-coated rat neurons, GM fed, 24 hour incubation
[7] = NMDA 300 uM + Memantine 50 uM, astrocyte-coated rat neurons, GM/NB + B-27 fed, 24 hour incubation
[8] = NMDA 500 μM + Memantine 10 μM, astrocyte-coated rat neurons, GM/NB + B-27 fed, 21 hour incubation
[9] = NMDA 500 uM + Memantine 10 uM, poly-lysine-coated rat neurons, GM/NB + B-27 fed, 40 hour incubation
[10] = NMDA 500 μM + Memantine 100 μM, astrocyte-coated rat neurons, GM/NB + B-27 fed, 21 hour incubation
[11] = NMDA 500 uM + Memantine 100 uM, poly-lysine-coated rat neurons, GM/NB + B-27 fed, 40 hour incubation

CC12CC3CC(C)(C1)CC(N)(C3)C2 [memantine, 1-amino-3,5-dimethyladamantane, reference compound]
rotarod fall time, pre-treatment vs 20 min after injection (C57/BL6 male mice [1]): loss of performance
hyperactivity (side effect) (C57/BL6 male mice [1]; ip, 30 mg/kg): observed
rotarod performance after dosing vs. control (C57/BL6 male mice [1]; ip, 30 mg/kg): statistically significant decreases in rotarod performance
% (Control Wash = 100) [2, 5]: 166%
Secreted LDH (Avg) [2, 5]: 0.75
Secreted/(total + secreted) (Avg) [2, 5]: 18.20
Total LDH (Avg) [2, 5]: 3.36
% (Control Wash = 100) [2, 6]: 106%
Secreted LDH (Avg) [2, 6]: 0.20
Secreted/(total + secreted) (Avg) [2, 6]: 6.20
Total LDH (Avg) [2, 6]: 3.06
% (Control Wash = 100) [2, 7]: 272%
Secreted LDH (Avg) [2, 7]: 0.83
Secreted/(total + secreted) (Avg) [2, 7]: 19.63
Total LDH (Avg) [2, 7]: 3.41
% (Control Wash = 100) [2, 8]: 129%
Secreted LDH (Avg) [2, 8]: 0.47
Secreted/(total + secreted) (Avg) [2, 8]: 10.73
Total LDH (Avg) [2, 8]: 3.89
% (Control Wash = 100) [2, 9]: 111%
Secreted LDH (Avg) [2, 9]: 0.41
Secreted/(total + secreted) (Avg) [2, 9]: 12.77
Total LDH (Avg) [2, 9]: 2.80
% (Control Wash = 100) [2, 10]: 114%
Secreted LDH (Avg) [2, 10]: 0.42
Secreted/(total + secreted) (Avg) [2, 10]: 9.47
Total LDH (Avg) [2, 10]: 4.02
% (Control Wash = 100) [2, 11]: 156%
Secreted LDH (Avg) [2, 11]: 0.52
Secreted/(total + secreted) (Avg) [2, 11]: 17.86
Total LDH (Avg) [2, 11]: 2.39
Extension rate (C57/BL6 male mice [3]; 10 mg/kg i.p.): 0.67
Mortality rate (C57/BL6 male mice [3]; 10 mg/kg i.p.): 0
# of deaths (C57/BL6 male mice [3]; 10 mg/kg i.p., 6 mice): 0
# of extensions (C57/BL6 male mice [3]; 10 mg/kg i.p., 6 mice): 4
MES-induced death (C57/BL6 male mice [3]; low dose 10 mg/kg i.p., mice): protected all mice from death
Mortality rate (C57/BL6 male mice [4]; 10 mg/kg i.p.): 0.17
# of deaths within 30 min (C57/BL6 male mice [4]; 10 mg/kg i.p.): 1
Mortality rate (C57/BL6 male mice [4]; 30 mg/kg i.p.): 0
# of deaths within 30 min (C57/BL6 male mice [4]; 30 mg/kg i.p.): 0
PTZ-induced death (C57/BL6 male mice [4]; 10 and 30 mg/kg i.p.): dose-dependent reduction in death
PTZ-induced death (C57/BL6 male mice [4]; high dose 30 mg/kg i.p.): full protection
